Measured values published in patent publication US7538099B1, “Antiprogestin method and kit for reducing side effects associated with low dosage HRT, oral contraception and regulating menses” (Eastern Virginia Medical School, priority 1992, dated 2009).
Like-named read-outs stand apart in the source and are kept apart here.

Experiments:
[1] = tested on: ovariectomized cynomolgus monkeys; assay: Example III: vaginal bleeding in ovariectomized monkeys on estradiol and low-dose progesterone implants, onapristone 40 mg/kg im; assay type: in vivo; conditions: for incidence of breakthrough bleeding: 40 mg/kg im, estradiol and low-dose progesterone replacement
Protocol: (§1) Twenty ovariectomized cynomolgus monkeys were implanted subcutaneously with an estradiol-containing silastic capsule (3 cm length).
The study was undertaken in two phases.
(§2) All monkeys have reached at least day 272. The estradiol implant will remain in place to day 301. […] A smaller progesterone implant (0.5 cm) will be in place from day 210 to 294. This implant is intended to produce a serum progesterone concentration of approximately 0.7 ng/ml. The two experimental groups (M=10/group) were as follows: • Group 1 Onapristone vehicle (saline) on days 180, 197, 240, and 270 • Group 2 Onapristone […] (40 mg/kg, im) on days 180, 197, 240, and 270

[2] = Example II: serum hormone concentrations from subcutaneous capsules; assay type: in vivo, Macaca fascicularis
Protocol: (§3) Twenty previously ovariectomized cynomolgus monkeys (Macaca fascicularis) have implanted for 281 days a single estradiol-containing subcutaneous capsule. Estradiol release from this capsule results in serum estradiol concentrations of approximately 75 pg/ml. A subcutaneous progesterone capsule is implanted on day 191 and remains in place until day 281. Progesterone release from this capsule results in serum progesterone concentrations of approximately 4 ng/ml. The study takes place in the animal research facilities of the Eastern Virginia Medical School as described in Example I.

[3] = tested on: ovariectomized cynomolgus monkeys; assay: Example II: vaginal bleeding in ovariectomized monkeys on estradiol and estradiol plus progesterone replacement, intermittent onapristone; assay type: in vivo, Macaca fascicularis
Protocol: as §3
The purpose of this study was to evaluate break-through bleeding prior to and after onapristone treatment in ovariectomized monkeys receiving estrogen and estrogen plus progesterone replacement therapy. The twenty monkeys were assigned to the following four groups: Group I receives onapristone vehicle (saline) on days 30, 60, 90, 120, 150, 180, 210, 240, 270. Group 2 receives 3 mg/kg i.m. onapristone on days 30, 60, 90, 120, 150, 180, 210, 240, 270. Group 3 is treated with 10 mg/kg i.m. onapristone on the same days. Group 4 receives 30 mg/kg i.m. onapristone on the same days. Vaginal swabs are performed daily from day 1 to 281. The primary parameter for evaluation in this study is the occurrence of vaginal bleeding.

[4] = set-up: species or system cynomolgus monkeys; conditions: female, cynomolgus monkey, in vivo, sc
Protocol: as §1, §2

[5] = tested on: ovulation (serum estradiol and progesterone); assay: Example I Part II: weekly serum progesterone and estradiol (breakthrough ovulation, endogenous estrogen biosynthesis); assay type: in vivo, Macaca mulatta; conditions: continuous ultra low dose regimen plus intermittent RU 486; almost unvarying
From the text: In Part II, 30 of these primates were randomly assigned to five treatment groups of six each: (1) the oral contraceptive medication employed in Part I was continued (21+7 day regimen) for 6 months; (2) continuous (no “pill-free” interval) daily estrogen-progestin medication, with combined single day oral administration of an antiprogestin (RU 486) on treatment days 30, 60, 90, 120, 150, and 180; (3) same as group 2, except that the progesterone antagonist was given only on days 60, 120, and 180; (4) same as group 2, except that RU 486 was given only on days 90 and 180; and (5) 180 days of continuous estrogen-progestin daily therapy, but without any antiprogestin treatment. Daily monitoring to detect vaginal blood, as in Part I above, was discontinued at 187 days. Femoral blood was collected once weekly throughout in order to identify potential breakthrough ovulation via progesterone elevations; serum values above 1.0 ng/ml were considered indicative of ovarian luteal function and possible ovulation. Likewise, these same specimens were analyzed for estradiol levels in order to monitor ongoing endogenous estrogen biosynthesis. Two monkeys, in groups 1 and 3, respectively, were dropped from the ongoing protocol, one due to a skin rash and the other because of a thumb infection requiring topical treatment. Neither incident is believed to be related to the hormonal treatments.

[6] = tested on: adult female rhesus monkeys; assay: Example I Part II: daily vaginal swabs for bleeding, ultra low dose oral contraception with or without intermittent RU 486, 180 days; assay type: in vivo, Macaca mulatta
From the text: In Part II, 30 of these primates were randomly assigned to five treatment groups of six each: (1) the oral contraceptive medication employed in Part I was continued (21+7 day regimen) for 6 months; (2) continuous (no “pill-free” interval) daily estrogen-progestin medication, with combined single day oral administration of an antiprogestin (RU 486) on treatment days 30, 60, 90, 120, 150, and 180; (3) same as group 2, except that the progesterone antagonist was given only on days 60, 120, and 180; (4) same as group 2, except that RU 486 was given only on days 90 and 180; and (5) 180 days of continuous estrogen-progestin daily therapy, but without any antiprogestin treatment. Daily monitoring to detect vaginal blood, as in Part I above, was discontinued at 187 days. Femoral blood was collected once weekly throughout in order to identify potential breakthrough ovulation via progesterone elevations; serum values above 1.0 ng/ml were considered indicative of ovarian luteal function and possible ovulation. Likewise, these same specimens were analyzed for estradiol levels in order to monitor ongoing endogenous estrogen biosynthesis. […]
Data derived from Part II of the study was listed by treatment group with the profiles of endometrial bleeding through six treatment cycles to 180 days. Mean (+SEM) number of days for breakthrough bleeding or menses was calculated by dividing the total number of incidents recorded (per treatment cycle in the case of group 1 or 30 days intervals for groups 2 to 5) by the number of individuals observed in the group. In the tabulation of data, menses (withdrawal or induced bleeding at expected intervals) was scored for vaginal blood detected within the “pill free” interval for group 1 or within seven days after the intermittent administration of RU 486 during continuous ultra low dose oral contraception (groups 2 to 4). Similarly, failure to observe vaginal bleeding during these times of expected menses, either withdrawal of the oral contraceptive medication or soon after giving the progesterone antagonist, was scored as withdrawal amenorrhea.

SMILES: C[C@]12CC[C@@H]3c4ccc(O)cc4CC[C@H]3[C@@H]1CC[C@@H]2O [estradiol]
- breakthrough bleedings (BTBs) with E2 alone ([1]; ovariectomized monkeys substituted with E2 alone): do not exhibit breakthrough bleedings
- serum estradiol concentrations ([2]; single estradiol-containing subcutaneous capsule): approximately 75 pg/ml
- rate of breakthrough bleeding with progressing duration of estradiol treatment ([3]; Group 1, estradiol capsule, onapristone vehicle): increasing rate of breakthrough bleeding
- serum estradiol concentrations [4]: approximately 75 pg/ml

SMILES: CC(=O)[C@H]1CC[C@H]2[C@@H]3CCC4=CC(=O)CC[C@]4(C)[C@H]3CC[C@]12C [progesterone]
- BTBs after addition of low-dose progesterone ([1]; on estradiol implant): increase in BTBs
- serum progesterone concentrations ([2]; subcutaneous progesterone capsule, day 191 to 281): approximately 4 ng/ml

SMILES: CN(C)c1ccc([C@H]2C[C@]3(C)[C@@H](CC[C@]3(O)CCCO)[C@@H]3CCC4=CC(=O)CCC4=C32)cc1 [Onapristone]
- incidence of breakthrough bleeding [1]: reduced the incidence of BTBs
- incidence of breakthrough bleeding ([1]; listed as onapristone): reduced the incidence of breakthrough bleeding
- days of bleeding that followed the day 197 onapristone treatment ([1]; Group 2, 40 mg/kg): Twelve of the twenty days
- monkeys in which bleeding followed the day 197 treatment ([1]; Group 2, 40 mg/kg): four of the ten monkeys
- monkeys in which bleeding occurred ([1]; Group 2, 40 mg/kg): seven of the ten monkeys
- days of unscheduled vaginal bleeding (breakthrough bleeding) ([1]; Group 2, 40 mg/kg im, controls 33 days): 2 days
- days of bleeding that followed the day 240 onapristone treatment ([1]; Group 2, 40 mg/kg, in one monkey): Six of the twenty days
- days of vaginal bleeding ([1]; Group 2, 40 mg/kg, out of 800 days of observation): 20 days
- withdrawal-bleeding ([1]; monkeys substituted with E2 and low-dose progesterone): induced withdrawal-bleeding
- incidence of breakthrough bleeding ([3]; Groups 2-4: 3, 10, 30 mg/kg i.m. every 30 days, estradiol capsule): lowers the incidence of breakthrough bleeding
- induction of bleeding by onapristone during estradiol treatment ([3]; Groups 2-4: 3, 10, 30 mg/kg i.m. every 30 days, estradiol capsule only): does not induce bleeding
- induction of vaginal bleeding during combined estradiol and progestin treatment ([3]; after progesterone capsule implanted (day 191)): induces vaginal bleeding

SMILES: CC#C[C@]1(O)CC[C@H]2[C@@H]3CCC4=CC(=O)CCC4=C3[C@@H](c3ccc(N(C)C)cc3)C[C@@]21C [RU 486]
- serum estradiol levels [5]: ~25 pg/mL
- duration of menses after RU 486 ([6]; RU 486 50 mg intermittently during continuous ultra low dose oral contraception, P<0.05 versus interrupted pill cycle alone): 3.1 ± 0.8 days
- time to induced bleeding after RU 486, all instances ([6]; administered at 30, 60 or 90 day intervals): ≤ 72 h
- reduction of overall breakthrough bleeding incidence ([6]; single 50 mg oral RU 486 doses at 30, 60 or 90 day intervals during continuous ultra low dose oral contraception, groups 2 to 4 combined versus group 1, P<0.05): 57%
